Assay [1] deals with TNFα release by PBMCs stimulated by LPS. The assay can be described thus: Inhibition of TNFα release by mononuclear cells (PBMCs) stimulated by LPS. Type of assay: cell-based. As to conditions: compound 1 hour before LPS, further 20 hours, TNFα in supernate by ELISA. From the text: 1. Effects of Mononuclear Cells (PBMCs) Stimulated by LPS on TNFα
The research in respect of cytokine TNFα release by PBMCs in the human peripheral blood after stimulated by lipopolysaccharide (LPS) can be carried out in vitro. The research method for inhibiting cytokine TNFα release by PBMCs upon stimulation by LPS with the pharmaceutical active ingredients in the present application is described as follows.
PBMCs are obtained from heparin treated blood of at least three volunteer donors. The heparin treated blood of at least three volunteer donors was subject to gradient separation of the known method to obtain PBMCs. The PBMCs were collected and washed with 1640 medium (10% fetal bovine serum, 2 mM L-glutamine, […] mercaptoethanol, 50 μg/ml streptomycin and 50 U/ml penicillin) three times. The PBMCs was added into a 24-well plate and prepared with a concentration of 1×10^6 cell/ml with 1640 medium. A compound to be tested was dissolved in dimethylsulfoxide and prepared as a solution of the compound to be tested with a required concentration. The solution was added into the cell cultures. After incubated in a CO2 incubator (5% CO2, 90% humidity) for 1 hour, LPS (Sigma) was added until […] (except for the control).
After the medium was further incubated for 20 hours, the content of TNFα in the supernate of the PBMCs medium was measured by the standard method with commercial ELISA kit (U. S Genzyme Co). The inhibition ratio of TNFα was calculated by the measured value of control well without treated by active ingredients and the measured value of the test well using the test compound. The concentration of generating 50% inhibition of the TNFα release (IC50 value) was calculated with nonlinear regression analysis. Each concentration was measured twice simultaneously and an average value was calculated.

The target of assay [2] is T1, PDE4B1 (Homo sapiens, UniProt Q07343).
T1 construct: purchased BPS bioscience 60041
The assay can be described thus: Inhibitory activity of PDE4 enzyme (hydrolysis of cAMP), PDE4B1. The format is biochemical. Particulars: cAMP 5 μM, 37° C., 15 min to 30 min, AMP by HPLC-MS. Here is the method: (§1) (1) The inhibitory actions of compounds on activity of hydrolyzing cAMP with PDE4 enzyme were assayed by the inhibitory activity of PDE4 enzyme. The procedures are described as follows.
(§2) Humanized PDE4A1A, PDE4B1 and PDE4D2 were purchased from BPS bioscience (catalogue Nos.: 60040, 60041 and 60043, respectively). The enzyme reactions were carried out in 10 mM Tris-HCl (pH 7.4) and 1 mM MgCl2. The concentration of cAMP was 5 μM. The reaction was maintained at 37° C. for 15 min to 30 min so that the consumption of the substrate was controlled within 20%. The reaction was quenched with equal volume of acetonitrile. The production amount of the […] AMP was measured by HPLC-MS. The inhibitory activity of compounds on PDE4 enzyme was obtained by comparing the production amounts of the AMP in the experimental groups having the compounds with those of the control groups having no compounds.

Assay [3] concerns the target T2, PDE4D2 (Homo sapiens, UniProt Q08499).
T2 construct: purchased BPS bioscience 60043
The assay can be described thus: Inhibitory activity of PDE4 enzyme (hydrolysis of cAMP), PDE4D2. Type of assay: biochemical. As to conditions: cAMP 5 μM, 37° C., 15 min to 30 min, AMP by HPLC-MS. Here is the method:
as §1, §2

Assay [4] addresses T3, PDE4A1A (Homo sapiens, UniProt P27815).
T3 construct: purchased BPS bioscience 60040
The assay can be described thus: Inhibitory activity of PDE4 enzyme (hydrolysis of cAMP), PDE4A1A. The format is biochemical. As to conditions: cAMP 5 μM, 37° C., 15 min to 30 min, AMP by HPLC-MS. Here is the method: as §1, §2

For assay [5], the target named is T4, PDE2A (Homo sapiens, UniProt O00408).
T4 construct: purchased BPS bioscience 60020
The assay can be described thus: Inhibitory activity of PDE2 (selectivity of PDE enzyme). The format is biochemical. As to conditions: cAMP 5 μM, 37° C., 30 min, AMP by HPLC-MS. Here is the method:
(2) Inhibitory Activity of PDE2 (Selectivity of PDE Enzyme):
as §2, with “PDE2A was” for “PDE4A1A, PDE4B1 and PDE4D2 were”, “No.: 60020).” for “Nos.: 60040, 60041 and 60043, respectively).”, “reaction was” for “reactions were”, “μM,” for “μM.”, “for” for “for 15 min to”, “PDE2” for “PDE4 enzyme”

T3 sequence (P27815 1-647 isoform P27815-4): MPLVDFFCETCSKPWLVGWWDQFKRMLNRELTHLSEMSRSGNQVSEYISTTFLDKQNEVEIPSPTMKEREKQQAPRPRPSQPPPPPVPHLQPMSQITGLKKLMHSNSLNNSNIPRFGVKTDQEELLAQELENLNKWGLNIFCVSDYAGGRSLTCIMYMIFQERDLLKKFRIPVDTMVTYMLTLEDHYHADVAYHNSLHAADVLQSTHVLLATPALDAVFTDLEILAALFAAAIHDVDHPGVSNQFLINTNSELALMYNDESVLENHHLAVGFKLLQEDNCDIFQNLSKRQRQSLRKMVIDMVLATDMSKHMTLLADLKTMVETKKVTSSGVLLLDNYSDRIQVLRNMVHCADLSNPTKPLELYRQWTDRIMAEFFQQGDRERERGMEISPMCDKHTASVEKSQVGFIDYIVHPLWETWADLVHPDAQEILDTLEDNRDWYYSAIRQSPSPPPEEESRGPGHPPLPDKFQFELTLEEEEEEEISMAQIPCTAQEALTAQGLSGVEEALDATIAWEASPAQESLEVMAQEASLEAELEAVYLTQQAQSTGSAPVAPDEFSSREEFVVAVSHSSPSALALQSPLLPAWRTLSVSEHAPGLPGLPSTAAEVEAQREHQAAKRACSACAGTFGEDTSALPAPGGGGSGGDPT
T1 sequence (Q07343 whole entry): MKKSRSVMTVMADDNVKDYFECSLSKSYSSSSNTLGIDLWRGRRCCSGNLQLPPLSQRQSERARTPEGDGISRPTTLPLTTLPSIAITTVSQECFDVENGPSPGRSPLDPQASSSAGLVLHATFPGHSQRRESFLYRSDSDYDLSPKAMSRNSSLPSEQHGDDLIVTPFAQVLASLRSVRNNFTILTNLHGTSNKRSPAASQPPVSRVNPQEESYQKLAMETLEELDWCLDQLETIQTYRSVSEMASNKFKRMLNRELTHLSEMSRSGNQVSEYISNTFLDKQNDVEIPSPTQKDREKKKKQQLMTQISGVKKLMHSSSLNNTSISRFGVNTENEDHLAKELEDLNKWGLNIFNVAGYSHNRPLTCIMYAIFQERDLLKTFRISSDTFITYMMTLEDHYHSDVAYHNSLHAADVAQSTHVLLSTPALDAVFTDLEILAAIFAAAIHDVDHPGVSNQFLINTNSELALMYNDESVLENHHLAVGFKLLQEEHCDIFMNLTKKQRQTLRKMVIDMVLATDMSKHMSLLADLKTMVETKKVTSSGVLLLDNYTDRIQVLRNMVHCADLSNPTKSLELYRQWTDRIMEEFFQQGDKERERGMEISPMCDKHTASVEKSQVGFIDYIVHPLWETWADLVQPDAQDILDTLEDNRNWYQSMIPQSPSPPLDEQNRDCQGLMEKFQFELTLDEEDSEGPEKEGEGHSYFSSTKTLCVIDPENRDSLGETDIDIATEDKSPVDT
T2 sequence (Q08499 303-809): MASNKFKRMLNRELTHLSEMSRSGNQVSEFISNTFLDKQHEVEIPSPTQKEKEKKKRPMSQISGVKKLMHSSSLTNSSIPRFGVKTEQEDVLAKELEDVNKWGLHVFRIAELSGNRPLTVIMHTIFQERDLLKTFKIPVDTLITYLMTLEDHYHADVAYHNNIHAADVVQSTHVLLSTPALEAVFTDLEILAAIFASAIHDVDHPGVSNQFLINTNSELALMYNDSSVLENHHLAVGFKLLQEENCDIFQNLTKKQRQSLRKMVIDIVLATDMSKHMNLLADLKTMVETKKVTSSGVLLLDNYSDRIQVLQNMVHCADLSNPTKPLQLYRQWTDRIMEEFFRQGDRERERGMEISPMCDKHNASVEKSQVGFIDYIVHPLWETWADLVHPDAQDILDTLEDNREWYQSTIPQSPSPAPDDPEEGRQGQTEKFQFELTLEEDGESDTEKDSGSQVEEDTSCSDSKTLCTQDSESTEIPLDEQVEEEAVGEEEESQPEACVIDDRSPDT
T4 sequence (O00408 whole entry): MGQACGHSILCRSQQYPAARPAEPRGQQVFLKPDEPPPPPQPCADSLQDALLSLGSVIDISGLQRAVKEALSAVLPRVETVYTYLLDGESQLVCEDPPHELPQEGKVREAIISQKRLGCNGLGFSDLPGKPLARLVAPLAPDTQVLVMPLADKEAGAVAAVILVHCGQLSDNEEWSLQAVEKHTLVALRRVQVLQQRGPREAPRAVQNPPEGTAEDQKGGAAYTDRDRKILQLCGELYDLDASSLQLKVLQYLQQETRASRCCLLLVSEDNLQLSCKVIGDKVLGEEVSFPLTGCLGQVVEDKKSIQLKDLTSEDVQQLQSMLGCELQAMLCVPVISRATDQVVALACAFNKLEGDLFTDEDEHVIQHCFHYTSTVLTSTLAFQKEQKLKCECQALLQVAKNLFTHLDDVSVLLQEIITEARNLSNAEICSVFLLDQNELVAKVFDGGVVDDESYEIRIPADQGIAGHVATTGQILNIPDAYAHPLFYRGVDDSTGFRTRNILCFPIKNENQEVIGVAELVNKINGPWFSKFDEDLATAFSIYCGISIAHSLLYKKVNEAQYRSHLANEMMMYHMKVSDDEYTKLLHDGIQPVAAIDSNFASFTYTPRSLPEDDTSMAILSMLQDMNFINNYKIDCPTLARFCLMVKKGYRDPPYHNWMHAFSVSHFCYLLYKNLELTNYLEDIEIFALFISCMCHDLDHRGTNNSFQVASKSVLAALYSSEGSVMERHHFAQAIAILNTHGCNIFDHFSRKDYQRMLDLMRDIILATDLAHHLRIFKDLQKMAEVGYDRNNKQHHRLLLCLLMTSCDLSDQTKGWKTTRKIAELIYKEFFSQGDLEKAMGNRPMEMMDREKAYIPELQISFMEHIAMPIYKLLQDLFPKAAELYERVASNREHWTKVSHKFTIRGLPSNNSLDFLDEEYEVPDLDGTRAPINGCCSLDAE

Usually IC50 stands for the midpoint of a concentration-inhibition curve. A low value points to greater potency in that assay. As to `CCOc1cc(C(CS(C)(=O)=O)N2C(=O)c3csc(N)c3C2=O)ccc1OC` (stereo not shown) [Example 2, 5-(1-(3-ethoxy-4-methoxyphenyl)-2-(methylsulfonyl)ethyl)-1-amino-5H-thiophene[3,4-c]pyrrole-4,6-diketone], the concentration for half-maximal inhibition (IC50) in assay [1] (Homo sapiens, PBMC) turned out to be 0.524 µM; in assay [2], 0.212 µM; in assay [3], 1.9 µM.
Turning to `CCOc1ccc(C(CS(C)(=O)=O)N2C(=O)c3csc(NC(C)=O)c3C2=O)cc1OC` (stereo not shown) [Example 26, N-(5-(1-(3-methoxy-4-ethoxyphenyl)-2-(methylsulfonyl)ethyl)-4,6-dioxo-5,6-dihydro-4H-thiophene[3,4-c]pyrrole-1-yl)acetamide], the IC50 in assay [1] (human PBMCs) is more than 10 µM.
As to `CCOc1cc([C@@H](CS(C)(=O)=O)N2C(=O)c3csc(NC(C)=O)c3C2=O)ccc1OC` [Example 24, (S)—N-(5-(1-(3-ethoxy-4-methoxyphenyl)-2-(methylsulfonyl)ethyl)-4,6-dioxo-5,6-dihydro-4H-thiophene[3,4-c]pyrrole-1-yl)acetamide], the IC50 in assay [1] (human PBMCs) is 0.065 µM; in assay [2], 0.178 µM; in assay [3], 0.114 µM; in assay [4], 0.104 µM; in assay [5], more than 50 µM.
`CCOc1cc([C@H](CS(C)(=O)=O)N2C(=O)c3cscc3C2=O)ccc1OC` [Example 6, (R)-5-(1-(3-ethoxy-4-methoxyphenyl)-2-(methylsulfonyl)ethyl)-5H-thiophene[3,4-c]pyrrole-4,6-diketone]: the IC50 in assay [1] (Homo sapiens, PBMC) worked out at 2.5 µM; in assay [2] it was 2.3 µM; in assay [3] it was 0.315 µM.
On to `CCOc1cc([C@@H](CS(C)(=O)=O)N2C(=O)c3csc([N+](=O)[O-])c3C2=O)ccc1OC` [Example 20, (S)-1-nitro-5-(1-(3-ethoxy-4-methoxyphenyl)-2-(methylsulfonyl)ethyl)-5H-thiophene[3,4-c]pyrrole-4,6-diketone], for which the 50% inhibitory concentration (IC50) in assay [2] came out at 0.026 µM. This counts as double-digit nanomolar.
Regarding `COc1ccc(C(CS(C)(=O)=O)N2C(=O)c3cscc3C2=O)cc1OCc1ccccc1` (stereo not shown) [Example 9, 5-(1-(3-phenylmethoxy-4-methoxyphenyl)-2-(methylsulfonyl)ethyl)-5H-thiophene[3,4-c]pyrrole-4,6-diketone], the IC50 in assay [1] (Homo sapiens, PBMC) is 7.5 µM; in assay [2] it was 5.3 µM; in assay [3], 0.831 µM.
The molecule `CCOc1cc([C@@H](CS(C)(=O)=O)N2C(=O)c3csc(N)c3C2=O)ccc1OC` [Example 21, (S)-1-amino-5-(1-(3-ethoxy-4-methoxyphenyl)-2-(methylsulfonyl)ethyl)-5H-thiophene[3,4-c]pyrrole-4,6-diketone] gave an IC50 in assay [1] (human PBMCs) of 0.142 µM. That is a sub-micromolar value.
On to `CCOc1cc(C(CS(C)(=O)=O)N2C(=O)c3cscc3C2=O)ccc1OC` (stereo not shown) [Example 4, 5-(1-(3-ethoxy-4-methoxyphenyl)-2-(methylsulfonyl)ethyl)-5H-thiophene[3,4-c]pyrrole-4,6-diketone], for which the IC50 in assay [1] (Homo sapiens, PBMC) is 0.886 µM; in assay [2], 1.2 µM; in assay [3], 0.329 µM; in assay [4], 0.366 µM.
Consider `CCOc1cc(C(CS(C)(=O)=O)N2C(=O)c3csc(NS(C)(=O)=O)c3C2=O)ccc1OC` (stereo not shown) [Example 19, N-(5-(1-(3-ethoxy-4-methoxyphenyl)-2-(methylsulfonyl)ethyl)-4,6-diketone-5,6-dihydro-4H-thiophene[3,4-c]pyrrole-1-yl)methanesulfonamide], for which the IC50 in assay [1] (Homo sapiens, PBMC) was 0.288 µM; in assay [2], 0.167 µM.
In the same order, the values of `CCOc1cc([C@@H](CS(C)(=O)=O)N2C(=O)c3cscc3C2=O)ccc1OC` [Example 5, (S)-5-(1-(3-ethoxy-4-methoxyphenyl)-2-(methylsulfonyl)ethyl)-5H-thiophene[3,4-c]pyrrole-4,6-diketone] are 0.376 µM and 0.368 µM.
With `CCOc1cc(C(CS(C)(=O)=O)N2C(=O)c3csc(NC(C)=O)c3C2=O)ccc1OC` (stereo not shown) [Example 3, N-(5-(1-(3-ethoxy-4-methoxyphenyl)-2-(methylsulfonyl)ethyl)-4,6-dioxo-5,6-dihydro-4H-thiophene[3,4-c]pyrrole-1-yl)acetamide], the half-maximal inhibitory concentration (IC50) in assay [1] (human PBMCs) came out at 0.296 µM; in assay [2], 0.256 µM; in assay [3], 0.224 µM; in assay [4], 0.208 µM; in assay [5], 36 µM.
Turning to `CCOc1cc(C(CS(C)(=O)=O)N2C(=O)c3csc(NC(=O)CCl)c3C2=O)ccc1OC` (stereo not shown) [Example 18, 2-chloro-N-(5-(1-(3-ethoxy-4-methoxyphenyl)-2-(methylsulfonyl)ethyl)-4,6-diketone-5,6-dihydro-4H-thiophene[3,4-c]pyrrole-1-yl)acetamide], the half-maximal inhibitory concentration (IC50) in assay [1] (Homo sapiens, PBMC) was determined as 0.216 µM; in assay [2] it was 0.618 µM.
For `CCOc1cc([C@H](CS(C)(=O)=O)N2C(=O)c3csc(N)c3C2=O)ccc1OC` [Example 23, (R)-1-amino-5-(1-(3-ethoxy-4-methoxyphenyl)-2-(methylsulfonyl)ethyl)-5H-thiophene[3,4-c]pyrrole-4,6-diketone], the 50% inhibitory concentration (IC50) in assay [1] (Homo sapiens, PBMC) turned out to be 1.9 µM; in assay [2], 0.718 µM; in assay [3], 0.055 µM.
Consider `COc1ccc(C(CS(C)(=O)=O)N2C(=O)c3csc(NC(C)=O)c3C2=O)cc1OCc1ccccc1` (stereo not shown) [Example 12, N-(5-(1-(3-phenylmethoxy-4-methoxyphenyl)-2-(methylsulfonyl)ethyl)-4,6-dioxo-5,6-dihydro-4H-thiophene[3,4-c]pyrrole-1-yl)acetamide], for which the IC50 was more than 10 µM in assay [1] (Homo sapiens, PBMC) and 1.2 µM in assay [2].
In assay [1] (human PBMCs), `CCOc1cc([C@H](CS(C)(=O)=O)N2C(=O)c3csc(NC(C)=O)c3C2=O)ccc1OC` [Example 25, (R)—N-(5-(1-(3-ethoxy-4-methoxyphenyl)-2-(methylsulfonyl)ethyl)-4,6-dioxo-5,6-dihydro-4H-thiophene[3,4-c]pyrrole-1-yl)acetamide] registered a concentration for half-maximal inhibition (IC50) of 1.19 µM.
Turning to `COc1ccc(C(CS(C)(=O)=O)N2C(=O)c3csc(N)c3C2=O)cc1OCc1ccccc1` (stereo not shown) [Example 11, 5-(1-(3-phenylmethoxy-4-methoxyphenyl)-2-(methylsulfonyl)ethyl)-1-amino-5H-thiophene[3,4-c]pyrrole-4,6-diketone], the IC50 is more than 10 µM in assay [1] (Homo sapiens, PBMC) and 1 µM in assay [2].

The record behind these values is US10611775B2, “Thiophene derivatives” (TIANJIN HEMAY PHARMACEUTICAL CO., LTD., priority 2009, dated 2020).
